Test system: ECOs
Experiment: Response to secretin and somatostatin (organoid diameter)
Format: cell-based, human
Conditions: ECOs exposed to secretin, compared to untreated controls
Description: Responses to secretin and somatostatin were assessed as described in Sapazoits F, et al. (Biotechnol. 2015 1-11).
We then further characterized ECOs by focusing on their function following long-term culture (20 passages). The biliary epithelium regulates the homeostasis of bile through the transport of ions, water and bile acids. The secretory capacity of ECOs was interrogated using Rhodamine-123, a fluorescent substrate for the cholangiocyte surface glycoprotein Multidrug Resistance protein-1 (MDR1) (FIGS. 10 and 11). […]. […] The response of ECOs to secretin and somatostatin was also assessed. Secretin promotes water secretion, distending the bile duct lumen, while somatostatin negates the effects of secretin.

Substance: secretin
- organoid diameter: increased their diameter compared to untreated controls

From patent US12203099B2, “Methods of expanding cholangiocytes” (Cambridge Enterprise Limited, priority 2017, dated 2025)
